This passage reports IC50 and melting point results from patent US7781460B2, “Substituted indazoles as inhibitors of phosphodiesterase type-IV” (Ranbaxy Laboratories Limited, priority 2005, dated 2010).

In data set [1] the test system is TNF-α release from LPS-stimulated human peripheral blood mononuclear cells. Description: Cell based assay for TNF-α release (LPS stimulation of human PBMNC's). The note with it: PBMC; human PBMN cells, LPS 1 μg/ml, incubated overnight, ELISA; read-out: IC50, inhibition of TNF-α release. On the procedure: Cell based Assay for TNF-α Release
Method of Isolation of Human Peripheral Blood Mononuclear Cells:
Human whole blood was collected in vacutainer tubes containing heparin or EDTA as an anti coagulant. The blood was diluted (1:1) in sterile phosphate buffered saline and 10 ml. was carefully layered over 5 ml Ficoll Hypaque gradient (density 1.077 g/ml) in a 15 ml conical centrifuge tube. The sample was centrifuged at 3000 rpm for 25 minutes in a swing-out rotor at room temperature. After centrifugation, interface of cells were collected, diluted at least 1:5 with PBS and washed three times by centrifugation at 2500 rpm for 10 minutes at room temperature. The cells were resuspended in serum free RPMI 1640 medium at a concentration of 2 million cells/ml. Alternatively whole blood was used.
LPS Stimulation of Human PBMNC's:
PBMN cells (0.1 ml; 2 million/ml) were co-incubated with 20 μl of compound (final DMSO concentration of 0.2%) for 10 min in a flat bottom 96 well microtiter plate. Compounds were dissolved in DMSO initially and diluted in medium for a final concentration of 0.2% DMSO. LPS (1 μg/ml, final concentration) was then added at a volume of 10 μl per well. After 30 min, 20 μl of fetal calf serum (final concentration of 10%) was added to each well. Cultures were incubated overnight at 37° C. in an atmosphere of 5% CO2 and 95% air. Supernatant were then removed and tested by ELISA for TNF-α release using a commercial kit (e.g. BD Biosciences). For whole blood, the plasma samples were diluted 1:20 for ELISA. The level of TNF-α in treated wells was compared with the vehicle treated controls and inhibitory potency of compound was expressed as IC50 values calculated by using Graph pad prism.
On the technique in general: In an ELISA, binding on a coated surface is turned into a signal by an enzyme label.

A word on the IC50: it is the concentration at which inhibition is half-maximal. Consider `Cc1nn(C2CCCC2)c2cc(C3=NOC(C)(C#N)C3)ccc12` (stereo not shown) [Compound 2, 3-(1-Cyclopentyl-3-methyl-1H-indazol-6-yl)-5-methyl-4,5-dihydroisoxazole-5-carbonitrile], for which the IC50 in data set [1] is 4.2 to 10 µM. Take `CCc1nn(C2CCCC2)c2cc(C3=NOC(C)(C#N)C3)ccc12` (stereo not shown) [Compound 3, 3-(1-Cyclopentyl-3-ethyl-1H-indazol-6-yl)-5-methyl-4,5-dihydroisoxazole-5-carbonitrile]: the IC50 in data set [1] is 4.2 to 10 µM.

A word on the melting point: it is the temperature, or range, at which the solid turns liquid. `CCc1nn(C2CCCC2)c2cc(C3=NOC(C)(c4noc(-c5ccc(Cl)cc5)n4)C3)ccc12` (stereo not shown) [Compound 11, 6-{5-[5-(4-Chlorophenyl)-1,2,4-oxadiazol-3-yl]-5-methyl-4,5-dihydroisoxazol-3-yl}-1-cyclopentyl-3-ethyl-1H-indazole] came in with a melting point of 154 to 155 °C. For the compound `Cc1nn(C2CCCC2)c2cc(C3=NOC(C)(c4nc(-c5cc(F)ccc5F)no4)C3)ccc12` (stereo not shown) [Compound 23, 1-Cyclopentyl-6-{5-[3-(2,5-difluorophenyl)-1,2,4-oxadiazol-5-yl]-5-methyl-4,5-dihydroisoxazol-3-yl}-3-methyl-1H-indazole], the IC50 in data set [1] was in the range of 4.2 to 10 µM.

`CCc1nn(C2CCCC2)c2cc(C3=NOC(C)(c4nc(-c5cc(Cl)ccc5Cl)no4)C3)ccc12` (stereo not shown) [Compound 31, 1-Cyclopentyl-6-{5-[3-(2,5-dichlorophenyl)-1,2,4-oxadiazol-5-yl]-5-methyl-4,5-dihydroisoxazol-3-yl}-3-ethyl-1H-indazole]: the IC50 in data set [1] was 4.2 to 10 µM. Take `CCc1nn(C2CCCC2)c2cc(C3=NOC(C)(c4nc(-c5cc(F)ccc5F)no4)C3)ccc12` (stereo not shown) [Compound 32, 1-Cyclopentyl-6-{5-[3-(2,5-difluorophenyl)-1,2,4-oxadiazol-5-yl]-5-methyl-4,5-dihydroisoxazol-3-yl}-3-ethyl-1H-indazole]: in data set [1], the IC50 was in the range of 4.2 to 10 µM. The same measure, in the same setting: then `COc1ccc(C2CNC(=O)C2)cc1OC1CCCC1` (stereo not shown) [rolipram, reference compound], with 1.2 µM.
